≈ marks a conversion by molar mass, not a printed value.
Columns and labels:
[1] = tested on: K. pneumoniae ATCC BAA 1705 KPC-2-positive; assay: combination disc test CDT-KPC; format: cell-based; conditions: Klebsiella pneumoniae, BAA1705; agent 0.3 mg per disc; read-out: Diameter of inhibition zone, MEM-10 disc with agent
[2] = tested on: E. coli 77 CMY-2-positive; assay: combination disc test CDT-AmpC; format: cell-based; conditions: Escherichia coli; agent 0.3 mg per disc; read-out: Diameter of inhibition zone, CAZ-30 disc with agent
C. krusei ATCC 6258 = assay: antifungal activity (disc-diffusion, MIC, MFC); format: cell-based, Candida krusei; conditions: Pichia kudriavzevii, ATCC6258; fluconazole by Etest
Procedure: (§1) Direct antimicrobial activity against Gram-negative and Gram-positive bacterial strains, as well as against yeast, was examined as previously described by the disc-diffusion test, the MIC determination assay, the MBC (for bacteria), and the MFC (for yeasts) determination tests. All the above-mentioned tests were performed according to EUCAST [71, 72] and CLSI [73, 74, 75, 76, 77] recommendations. The following reference agents were used: nitrofurantoin (for Gram-negative rods), linezolid (for Gram-positive bacteria), and fluconazole (in the case of fungi). The new aromatic diboronic acids were dissolved in DMSO (Sigma, St. Louis, MO, USA). In the disc-diffusion test, the concentration of new agents was 0.4 mg per disc.

S. aureus ATCC 6538P = assay: direct antimicrobial activity (disc-diffusion, MIC, MBC); format: cell-based; conditions: Staphylococcus aureus, ATCC6538P; for zone of inhibition at 0.4 mg/disc: 0.4 mg per disc, 9 mm disc (linezolid 0.03 mg, 6 mm disc), - no zone, read-out: Diameter of inhibition zone
Procedure: as §1

E. faecium ATCC 6057 = assay: as above; format: cell-based; conditions: Enterococcus faecium, ATCC6057; for zone of inhibition at 0.4 mg/disc: 0.4 mg per disc, 9 mm disc (linezolid 0.03 mg, 6 mm disc), - no zone, read-out: Diameter of inhibition zone
Procedure: as §1

[3] = tested on: S. aureus ATCC 43300 MRSA; assay: as above; format: cell-based; conditions: Staphylococcus aureus; for zone of inhibition at 0.4 mg/disc: 0.4 mg per disc, 9 mm disc (linezolid 0.03 mg, 6 mm disc), - no zone, read-out: Diameter of inhibition zone
Procedure: as §1

E. faecalis ATCC 29212 = assay: as above; format: cell-based; conditions: Enterococcus faecalis, ATCC29212; for zone of inhibition at 0.4 mg/disc: 0.4 mg per disc, 9 mm disc (linezolid 0.03 mg, 6 mm disc), - no zone, read-out: Diameter of inhibition zone
Procedure: as §1

[4] = tested on: S. epidermidis ATCC 12228; assay: as above; format: cell-based; conditions: Staphylococcus epidermidis, ATCC12228; for zone of inhibition at 0.4 mg/disc: 0.4 mg per disc, 9 mm disc (linezolid 0.03 mg, 6 mm disc), - no zone, read-out: Diameter of inhibition zone
Procedure: as §1

C. albicans ATCC 90028 = assay: antifungal activity (disc-diffusion, MIC, MFC); format: cell-based; conditions: Candida albicans, ATCC90028; fluconazole by Etest
Procedure: as §1

C. tropicalis IBA 171 = assay: antifungal activity (disc-diffusion, MIC, MFC); format: cell-based; conditions: Candida tropicalis, IBA171; fluconazole by Etest
Procedure: as §1

C. tropicalis ATCC 750 = assay: antifungal activity (disc-diffusion, MIC, MFC); format: cell-based; conditions: Candida tropicalis, ATCC750; fluconazole by Etest
Procedure: as §1

S. cerevisiae ATCC 9763 = assay: antifungal activity (disc-diffusion, MIC, MFC); format: cell-based; conditions: Saccharomyces cerevisiae, ATCC9763; fluconazole by Etest
Procedure: as §1

[5] = tested on: C. parapsilosis ATCC 22019; assay: antifungal activity (disc-diffusion, MIC, MFC); format: cell-based, Candida parapsilosis; conditions: Lodderomyces parapsilosis, ATCC22019; fluconazole by Etest
Procedure: as §1

[6] = tested on: P. aeruginosa MUW 700 cAmpC-positive; assay: combination disc test CDT-AmpC; format: cell-based; conditions: Pseudomonas aeruginosa; agent 0.3 mg per disc; read-out: Diameter of inhibition zone, CAZ-30 disc with agent
[7] = tested on: K. pneumoniae ATCC 700603 ESBL-positive; assay: combination disc test CDT-ESBL; format: cell-based; conditions: Klebsiella pneumoniae, ATCC700603; agent 0.3 mg per disc; read-out: Diameter of inhibition zone, CAZ-30 disc with agent
B. subtilis ATCC 6633 = assay: direct antimicrobial activity (disc-diffusion); format: cell-based; conditions: Bacillus subtilis, ATCC6633; 0.4 mg per disc, 9 mm disc (linezolid 0.03 mg, 6 mm disc); - no zone; read-out: Diameter of inhibition zone
Procedure: as §1

[8] = tested on: C. guilliermondii IBA 155; assay: antifungal activity (disc-diffusion, MIC, MFC); format: cell-based, Candida guilliermondii; conditions: Meyerozyma guilliermondii, IBA155; fluconazole by Etest
Procedure: as §1

[9] = MTT-based viability assay; format: cell-based; conditions: human, MRC-5 human fibroblasts, 72 h, read-out: Viability of MRC-5 cells (% of viable cells ± SD)
Procedure: MRC-5 human fibroblasts (ECACC) were cultured in MEME, Minimum Essential Medium Eagle (Merck) supplemented with 10% fetal bovine serum (Merck), 2 mM l-glutamine, antibiotics (100 U/mL penicillin, 100 μg/mL streptomycin, Merck) and 1% non-essential amino acids (Merck). Cells were grown in 75 cm^2 cell culture flasks (Sarstedt) in a humidified atmosphere of CO2/air (5/95%) at 37 °C. MTT-based viability assay was conducted as described previously. Optical densities were measured at 570 nm using a BioTek microplate reader. All measurements were carried out in three replicates, and the results were expressed as a percent of viable cells versus control cells.

[10] = tested on: P. aeruginosa MUW 700 AmpC(+); assay: MIC of tested agent alone, microdilution; format: cell-based; conditions: Pseudomonas aeruginosa; read-out: MIC of agent alone
Procedure: (§2) To examine the ability of tested agents to inhibit various carbapenemases and AmpC-enzymes, their synergy with antibiotics against β-lactamase-producing strains was assessed by checkerboard microdilution assay, with slight modification. Checkerboards were prepared in microtiter plates, with seven two-fold dilutions of β-lactams (1–64 mg/L) in the rows and three two-fold dilutions of tested agents and PBA (4–16 mg/L) in the columns. Tested agents’ concentrations were limited to the concentrations at which the newest commercially available BLIs (vaborbactam, relebactam, and avibactam) are used in susceptibility testing. Plates were inoculated and incubated as in the MIC microdilution assay. Parallel, MICs of tested agents and PBA alone were determined by the microdilution assay. Following the incubation, antibiotic MICs in the presence of each agent’s concentration were determined. Moreover, for the first well without growth found in each checkerboard row and column along the growth/non-growth interface, the fractional inhibitory concentration index (FICI) was calculated using the formula below:FICI = [(MIC of antibiotic in combination)/(MIC of antibiotic alone)] + [(MIC of the tested agent in combination)/(MIC of tested agent alone)].

E. coli 77 CMY-2(+) = assay: MIC of tested agent alone, microdilution; format: cell-based; conditions: Escherichia coli; read-out: MIC of agent alone
Procedure: as §2

[11] = tested on: K. pneumoniae 83 KPC-3(+), CTX-M-3(+); assay: MIC of tested agent alone, microdilution; format: cell-based; conditions: Klebsiella pneumoniae; read-out: MIC of agent alone
Procedure: as §2

[12] = tested on: K. pneumoniae 81 KPC-3(+); assay: MIC of tested agent alone, microdilution; format: cell-based; conditions: Klebsiella pneumoniae; read-out: MIC of agent alone
Procedure: as §2

E. coli 76 KPC-2(+) = assay: MIC of tested agent alone, microdilution; format: cell-based; conditions: Escherichia coli; read-out: MIC of agent alone
Procedure: as §2

[13] = tested on: K. pneumoniae ATCC BAA-1705 KPC-2(+); assay: MIC of tested agent alone, microdilution; format: cell-based; conditions: Klebsiella pneumoniae, ATCCBAA1705; read-out: MIC of agent alone
Procedure: as §2

Row | Compound | zone of inhibition at 300 µg/disc [1] [mm] | zone of inhibition at 300 µg/disc [2] [mm] | MIC (C. krusei ATCC 6258) [µg/mL] | MIC (S. aureus ATCC 6538P) [µg/mL] | zone of inhibition at 0.4 mg/disc (S. aureus ATCC 6538P) [mm] | MIC (E. faecium ATCC 6057) [µg/mL] | zone of inhibition at 0.4 mg/disc (E. faecium ATCC 6057) [mm] | MIC [3] [µg/mL] | zone of inhibition at 0.4 mg/disc [3] [mm] | MIC (E. faecalis ATCC 29212) [µg/mL] | zone of inhibition at 0.4 mg/disc (E. faecalis ATCC 29212) [mm] | MIC [4] [µg/mL] | zone of inhibition at 0.4 mg/disc [4] [mm] | MIC (C. albicans ATCC 90028) [µg/mL] | MIC (C. tropicalis IBA 171) [µg/mL] | MIC (C. tropicalis ATCC 750) [µg/mL] | MIC (S. cerevisiae ATCC 9763) [µg/mL] | MIC [5] [µg/mL] | zone of inhibition at 300 µg/disc [6] [mm] | zone of inhibition at 300 µg/disc [7] [mm] | also measured
1 | OB(O)c1c(F)c(F)c(F)c(F)c1B(O)O [3d] | 6 | 21 | 50 (≈ 210 µM) | 200 (≈ 841 µM) | 20 | 200 (≈ 841 µM) | 16 | 400 (≈ 1680 µM) | 18 | 200 (≈ 841 µM) | 12 | 200 (≈ 841 µM) | 21 | 100 (≈ 421 µM) | > 400 | > 400 | 200 (≈ 841 µM) | > 400 | 14 | 15 | zone of inhibition at 0.4 mg/disc (B. subtilis ATCC 6633): 12 mm; MIC [8]: 200 µg/mL (≈ 841 µM); viability at 72 h, 12.5 mg/L [9]: 91.3 ± 7.4%; viability at 72 h, 25 mg/L [9]: 100 ± 7.7%; viability at 72 h, 50 mg/L [9]: 77.7 ± 15.5%; MIC [10]: > 400 µg/mL; MIC (E. coli 77 CMY-2(+)): > 400 µg/mL; MIC [11]: > 400 µg/mL; MIC [12]: > 400 µg/mL; MIC (E. coli 76 KPC-2(+)): > 400 µg/mL; MIC [13]: > 400 µg/mL
2 | OB(O)c1cc(B(O)O)cc(B(O)O)c1 [4a, benzene-1,3,5-triboronic acid] | 6 | 20 | > 400 | > 400 |  | 400 (≈ 1910 µM) |  | > 400 |  | > 400 |  | > 400 |  | > 400 | > 400 | > 400 | > 400 | > 400 | 16 | 14 | MIC [8]: > 400 µg/mL; viability at 72 h, 12.5 mg/L [9]: 102 ± 6.9%; viability at 72 h, 25 mg/L [9]: 84.4 ± 6.4%; viability at 72 h, 50 mg/L [9]: 87.9 ± 8.5%; MIC [10]: > 400 µg/mL; MIC (E. coli 77 CMY-2(+)): > 400 µg/mL; MIC [11]: > 400 µg/mL; MIC [12]: > 400 µg/mL; MIC (E. coli 76 KPC-2(+)): > 400 µg/mL; MIC [13]: > 400 µg/mL
3 | CC(=O)NC[C@H]1CN(c2ccc(N3CCOCC3)c(F)c2)C(=O)O1 [LIN, linezolid, reference compound] |  |  |  | 1 (≈ 2.96 µM) | 25 | 2 (≈ 5.93 µM) | 14 | 2 (≈ 5.93 µM) | 25 | 2 (≈ 5.93 µM) | 15 | 1 (≈ 2.96 µM) | 26 |  |  |  |  |  |  |  | MBC (S. aureus ATCC 6538P): > 128 µg/mL; MBC (E. faecium ATCC 6057): > 128 µg/mL; MBC [3]: > 128 µg/mL; MBC (E. faecalis ATCC 29212): > 128 µg/mL; MBC [4]: > 128 µg/mL; zone of inhibition at 0.4 mg/disc (B. subtilis ATCC 6633): 30 mm

Reference: PMC10648349, “Aromatic Diboronic Acids as Effective KPC/AmpC Inhibitors” (Molecules, 2023)
